Measured values as given in US20240383922A1, “KRAS Modulating Compounds” (Gilead Sciences, Inc., priority 2023, published 2024).
Read-outs that look alike come from different tables or passages of the source.

Columns and labels:
[1] = tested on: cellular pERK in Kuramochi (WT KRAS) cell-line; assay: Cell based pERK assay (HTRF), Kuramochi; conditions: Kuramochi (WT KRAS) cells, 2 hours incubation
Procedure: (§1) Compounds were tested in a 384-well assay format for their ability to inhibit cellular pERK in Kuramochi (WT KRAS), MIA-PaCa-2 (KRAS-G12C), ASPC-1 (KRAS G12D), and NCI-H441 (KRAS-G12V) cell-lines. Compounds were serially diluted (1:3) in DMSO. On day −1, 80 uL of cells were plated per well in the 384 well tissue-culture plates (Greiner: Cat #781080) to seed 5000 cells per wells of AsPC-1 or 7500 cells of MIA-PaCa-2, NCI-H441, and Kuramochi cell lines in RPMI (Corning: Cat #10-040-CM) with 10% fetal bovine serum (FBS) (HyClone: Cat #SH30071-03) and 1× penicillin-streptomycin-glutamate (PSG) (Corning: Cat #30-009-CI) for […] and Kuramochi cell lines and DMEM (Corning: Cat #15-018-CM) with […] and 1× PSG for MKA-PaCa-2 cell line. The plates were then incubated overnight at 37° C. and 5% CO2. On day 0, 400 nL of compound/well was added into the cell plates and mixed 5 times by pipetting using a Beckmann Biomek FX. The cell plates were then incubated for 2 hours at 37° C. and 5% CO2. HTRF Advanced Phospho-ERK1/2 ([…]) Detection Kits (PerkinElmer: Cat #64AERPEG) were used to prepare the lysis and detection solution according to manufacturer protocol. Following the 2 hour incubation, 70 μL of medium was aspirated from the plates and 10 uL of lysis and detection solution was added to the plates using a Biotek EL406 washer and dispenser. Plates were sealed and stored overnight at room temperature. HTRF ratio (665 nm/615 nm) was read by Envision multimode reader (PerkinElmer) the next day. The TR-FRET ratios were normalized to a positive (saturating concentration of known inhibitor) and negative (DMSO) control and plotted against the log of compound concentration. IC50 values were defined as the compound concentration that causes a […] in normalized signal and were calculated using a sigmoidal dose-response model to generate curve fits.

[2] = tested on: cellular pERK in MIA-PaCa-2 (KRAS-G12C) cell-line; assay: Cell based pERK assay (HTRF), MIA-PaCa-2; conditions: MIA-PaCa-2 (KRAS-G12C) cells, 2 hours incubation, read-out: MIAPaCa2 pERK EC50
Procedure: as §1

[3] = tested on: cellular pERK in NCI-H441 (KRAS-G12V) cell-line; assay: Cell based pERK assay (HTRF), NCI-H441; conditions: NCI-H441 (KRAS-G12V) cells, 2 hours incubation
Procedure: as §1

[4] = tested on: cellular pERK in ASPC-1 (KRAS G12D) cell-line; assay: Cell based pERK assay (HTRF), ASPC-1; conditions: ASPC-1 (KRAS G12D) cells, 2 hours incubation
Procedure: as §1

EC50 [1] | EC50 ([2]; Homo sapiens) | EC50 ([3]; Homo sapiens) | EC50 ([4]; Homo sapiens, ASPC1) | EC50 [2] | EC50 [3] | EC50 ([4]; read-out: AsPC1 pERK EC50) | Structure (SMILES)
384 nM | 328 nM | 825 nM | > 1000 nM |  |  |  | C#Cc1c(F)ccc2cccc(-c3nc4c5c(nc(OC[C@@]67CCCN6C[C@H](F)C7)nc5c3F)N3CCCOC[C@@H]3CC4)c12 [Example 6-7]
376 nM | 430 nM | 729 nM | > 1000 nM |  |  |  | C#Cc1c(F)ccc2cccc(-c3nc4c5c(nc(OCC67CCCN6CCC7)nc5c3F)N3CCCOC[C@@H]3CC4)c12 [Example 6-9]
289 nM | 280 nM | 460 nM | 706 nM |  |  |  | C#Cc1c(F)ccc2cccc(-c3nc4c5c(nc(OC[C@@]67CCCN6[C@H](CF)CC7)nc5c3F)N3CCCOC[C@@H]3CC4)c12 [Example 6-10]
16.6 nM | 1.68 nM | 8.06 nM | 24.4 nM |  |  |  | C#Cc1c(F)ccc2cc(O)cc(-c3nc4c5c(nc(OCC67CCCN6CCC7)nc5c3F)N3CCCOC[C@@H]3CC4)c12 [Example 6-11]
78.5 nM | 265 nM | > 1000 nM | > 1000 nM |  |  |  | C#Cc1c(F)ccc2cc(O)cc(-c3nc4c5c(nc(OC[C@@]67CCCN6C[C@H](F)C7)nc5c3F)N3CC5(COCC3CC4)OCCO5)c12 (some centres unmarked) [Example 6-16]
1.99 nM | 0.28 nM | 0.56 nM | 0.61 nM |  |  |  | C#Cc1c(F)ccc2cc(O)cc(-c3nc4c5c(nc(OC[C@@]67CCCN6C[C@H](F)C7)nc5c3F)N3CCCOC[C@@H]3C=C4C)c12 [Example 6-18]
4.01 nM | 0.47 nM | 1.15 nM | 1.18 nM |  |  |  | C#Cc1c(F)ccc2cc(O)cc(-c3nc4c5c(nc(OC[C@@]67CCCN6C[C@H](F)C7)nc5c3F)N3CCCOC[C@@H]3C=C4)c12 [Example 6-19]
48.4 nM | 448 nM | 397 nM | > 1000 nM |  |  |  | C#Cc1c(F)ccc2cc(O)cc(-c3nc4c5c(nc(O[C@@H](C)[C@@H]6CCCN6C)nc5c3F)N3CCCOC[C@@H]3CC4)c12 [Example 6-24]
17.9 nM | 3.87 nM | 4.57 nM | 9.84 nM |  |  |  | C#Cc1c(F)ccc2cc(O)cc(-c3nc4c5c(nc(OC[C@@]67CCCN6[C@H](COC(=O)N(C)C)CC7)nc5c3F)N3CCCOC[C@@H]3CC4)c12 [Example 6-25]
2.61 nM | 1.59 nM | 4.04 nM | 1.19 nM |  |  |  | C#Cc1c(F)c(F)cc2cc(O)cc(-c3nc4c5c(nc(OC[C@@]67CCCN6C[C@H](F)C7)nc5c3F)N3CCCOC[C@@H]3CC4)c12 [Example 6-26]
28.8 nM | 17.4 nM | 58.7 nM | 97.1 nM |  |  |  | C#Cc1c(F)ccc2cc(O)cc(-c3nc4c5c(nc(OC[C@@]67CCCN6C[C@H](F)C7)nc5c3F)N3CCCOC[C@@H]3C[C@@H]4F)c12 [Example 6-27]
46.3 nM | 23.8 nM | 452 nM | 741 nM |  |  |  | C#Cc1c(F)ccc2cc(O)cc(-c3nc4c5c(nc(OC[C@@]67CCCN6C[C@H](F)C7)nc5c3F)N3CCC(O)CC[C@@H]3CC4)c12 (some centres unmarked) [Example 6-29]
3.44 nM | 4.01 nM | 6.23 nM | 25.8 nM |  |  |  | C#Cc1c(F)ccc2cc(N)cc(-c3nc4c5c(nc(OC[C@@]67CCCN6[C@H](CF)CC7)nc5c3F)N3CCCOC[C@@H]3CC4)c12 [Example 7-2]
6.12 nM | 9.14 nM | 20 nM | 118 nM |  |  |  | C#Cc1c(F)ccc2cc(N)cc(-c3nc4c5c(nc(OCC67CCCN6CCC7)nc5c3F)N3CCCOC[C@@H]3CC4)c12 [Example 7-3]
41.1 nM | 72.3 nM | > 1000 nM | 125 nM |  |  |  | C#Cc1c(F)ccc2cc(N)cc(-c3nc4c5c(nc(OC[C@@]67CCCN6C[C@H](F)C7)nc5c3F)N3CCCOC[C@H]3C=C4C)c12 [Example 7-8]
7.23 nM | 9.04 nM | 16.9 nM | 54.9 nM |  |  |  | C#Cc1c(F)ccc2cc(N)cc(-c3nc4c5c(nc(OC[C@@]67CCCN6C[C@H](F)C7)nc5c3F)N3CCCOC[C@@H]3C[C@H]4C)c12 [Example 7-9]
208 nM | 218 nM | > 535 nM | > 697 nM |  |  |  | C#Cc1c(F)ccc2cc(N)cc(-c3nc4c5c(nc(OC[C@@]67CCCN6C[C@H](F)C7)nc5c3F)N3CCCOC[C@@H]3C[C@@H]4C)c12 [Example 7-10]
3.19 nM |  |  |  | 7.72 nM | 13 nM | 42.4 nM | CCc1c(F)ccc2cc(O)cc(-c3nc4c5c(nc(OC[C@@]67CCCN6C[C@H](F)C7)nc5c3F)N3CCOCCC3CC4)c12 (stereo partly drawn) [Example 8-1, 5-ethyl-6-fluoro-4-(1-fluoro-12-(((2R,7a5)-2-fluorotetrahydro-1H-pyrrolizin-7a(5H)-yl)methoxy)-5,5a,6,7,9,10-hexahydro-4H-8-oxa-3,10a,11,13-tetraazanaphtho[1,8-ab]heptalen-2-yl)naphthalen-2-ol]
8.04 nM | 13.8 nM | 21 nM | 23.6 nM |  |  |  | CCc1c(F)ccc2cc(O)cc(-c3nc4c5c(nc(OC[C@@]67CCCN6C[C@H](F)C7)nc5c3F)N3CCCOCC3CC4)c12 (some centres unmarked) [Example 8-2]
1.91 nM | 1.57 nM | 3.8 nM | 9.88 nM |  |  |  | CCc1c(F)ccc2cc(O)cc(-c3nc4c5c(nc(OC[C@@]67CCCN6C[C@H](F)C7)nc5c3F)N3CCCOC[C@@H]3CC4)c12 [Example 8-3]
401 nM | 682 nM | 916 nM | 931 nM |  |  |  | C#Cc1c(F)ccc2cc(O)cc(-c3nc4c5c(nc(OC[C@@]67CCCN6C[C@H](F)C7)nc5c3F)N3CCCCC[C@H]3CC4)c12 [Example 12-1, 5-ethynyl-6-fluoro-4-((S)-1-fluoro-12-(((2R,7aS)-2-fluorotetrahydro-1H-pyrrolizin-7a(5H)-yl)methoxy)-4,5,5a,6,7,8,9,10-octahydro-3,10a,11,13-tetraazanaphtho[1,8-ab]heptalen-2-yl)naphthalen-2-ol]
117 nM |  |  |  | 319 nM | 380 nM | > 1000 nM | C#Cc1c(F)ccc2cc(O)cc(-c3nc4c5c(nc(OC[C@@]67CCCN6C[C@H](F)C7)nc5c3F)N3CCCCC3(C)CC4)c12 (stereo partly drawn) [Example 13-1, 5-ethynyl-6-fluoro-4-(1-fluoro-11-(((2R,7aS)-2-fluorotetrahydro-11H-pyrrolizin-7a(5H)-yl)methoxy)-5a-methyl-5,5a,6,7,8,9-hexahydro-4H-3,9a,10,12-tetraazabenzo[4,5]cyclohepta[1,2,3-de]naphthalen-2-yl)naphthalen-2-ol]
517 nM |  |  |  | > 1000 nM | > 1000 nM | > 1000 nM | CCc1c(F)ccc2cc(O)cc(-c3nc4c5c(nc(OC[C@@]67CCCN6C[C@H](F)C7)nc5c3F)N3CCCCC3(C)CC4)c12 (stereo partly drawn) [Example 14-1, 5-ethyl-6-fluoro-4-(1-fluoro-11-(((2R,7aS)-2-fluorotetrahydro-1H-pyrrolizin-7a(5H)-yl)methoxy)-5a-methyl-5,5a,6,7,8,9-hexahydro-4H-3,9a,10,12-tetraazabenzo[4,5]cyclohepta[1,2,3-de]naphthalen-2-yl)naphthalen-2-ol]
